Measurements reported in patent US20230242585A1, “IMMUNOMODULATORS” (Bristol-Myers Squibb Company, priority 2020, published 2023).
pIC50: −log10 of the molar value. Starred links: 1 amine or outer side, 2 acyl side, 3 side chain; linkers in the order of their positions; H or OH if unused. Positions of bridges follow the written chain, without caps; N, C: chain ends. Non-standard residues stand in square brackets, D forms with d. Residues, ends and D or L forms follow the SMILES beside them. X48 = O=C([C@H](CCNCc1ccccc1O[C@@H]1O[C@H](CO)[C@@H](O)[C@H](O)[C@H]1O)N[*:1])[*:2]; X47 = O=C([C@H](CNCc1ccccc1O[C@@H]1O[C@H](CO)[C@@H](O)[C@H](O)[C@H]1O)N[*:1])[*:2]; Trp(1-CH2COOH) = N[C@@H](Cc1cn(CC(=O)O)c2ccccc12)C(=O)O; X65 = O=C([C@H](CCNCc1ccccc1-c1ccc(Cl)cc1)N[*:1])[*:2]; X64 = O=C([C@H](CNCc1ccccc1-c1ccc(Cl)cc1)N[*:1])[*:2]; X12 = O=C([C@H](CNCc1cccc2ccc3ccccc3c12)N[*:1])[*:2]; X19 = O=C([C@H](CCNCc1cccc2nccnc12)N[*:1])[*:2]; X18 = O=C([C@H](CNCc1cccc2nccnc12)N[*:1])[*:2]; Hyp = O=C(O)[C@@H]1C[C@@H](O)CN1; NMeNle = CCCC[C@H](NC)C(=O)O; NMeA = CN[C@@H](C)C(=O)O; Dab = NCC[C@H](N)C(=O)O

The compounds below were run against T1, PD-1/PD-L1 (Homo sapiens, UniProt Q9NZQ7) (assay: PD-1/PD-L1 Homogenous Time-Resolved Fluorescence (HTRF) binding assay). Settings: PD-L1-His 10 nM, PD-1-Ig 20 nM.
T1 construct: TVMV protease site (linker) (C); made in house; host or cells: HEK293T cells
T1 sequence (Q9NZQ7 18-239): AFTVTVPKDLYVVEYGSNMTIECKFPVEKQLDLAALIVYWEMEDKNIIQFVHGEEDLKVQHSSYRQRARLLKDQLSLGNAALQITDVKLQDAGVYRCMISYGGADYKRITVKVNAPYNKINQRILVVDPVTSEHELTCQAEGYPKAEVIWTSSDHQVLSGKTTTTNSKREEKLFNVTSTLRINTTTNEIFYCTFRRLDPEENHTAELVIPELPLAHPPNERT
Text: The ability of the compounds of formula (I) to bind to PD-L1 was investigated using a PD-1/PD-L1 Homogenous Time-Resolved Fluorescence (HTRF) binding assay.
The interaction of PD-1 and PD-L1 can be assessed using soluble, purified preparations of the extracellular domains of the two proteins. The PD-1 and PD-L1 protein extracellular domains were expressed as fusion proteins with detection tags, for PD-1, the tag was the Fc portion of Immunoglobulin (PD-1-Ig) and for PD-L1 it was the 6 histidine motif (PD-L1-His). All binding studies were performed in an HTRF assay buffer consisting of dPBS supplemented with 0.1% […] bovine serum albumin and 0.05% (v/v) Tween-20. For the h/PD-L1-His binding assay, inhibitors were pre-incubated with PD-L1-His (10 nM final) for 15 m in 4 µl of assay buffer, followed by addition of PD-1-Ig (20 nM final) in 1 µl of assay buffer and further incubation for 15 m. HTRF detection was achieved using europium crypate-labeled anti-Ig (1 nM final) and allophycocyanin (APC) labeled anti-His (20 nM final). Antibodies were diluted in HTRF detection buffer and 5 µl was dispensed on top of the binding reaction. The reaction mixture was allowed to equilibrate for 30 minutes and the resulting signal (665 nm/620 nm ratio) was obtained using an EnVision fluorometer. Additional binding assays were established between the human proteins PD-1-Ig/PD-L2-His (20 & 5 nM, respectively) and CD80-His/PD-L1-Ig (100 & 10 nM, respectively).
Recombinant Proteins: Human PD-1 (25-167) with a C-terminal human Fc domain of immunoglobulin G (Ig) epitope tag [hPD-1 (25-167)-3S-IG] and human PD-L1 (18-239) with a C-terminal His epitope tag [hPD-L1(18-239)-TVMV-His] were expressed in HEK293T cells and purified sequentially by ProteinA affinity chromatography and size exclusion chromatography. Human PD-L2-His and CD80-His was obtained through commercial sources.
Table 1 lists the IC50 values for representative examples of this disclosure measured in the PD-1/PD-L1 Homogenous Time-Resolved Fluorescence (HTRF) binding assay.
For CCCC[C@H]1C(=O)N(C)[C@@H](CCCC)C(=O)N[C@@H](CC(C)C)C(=O)N[C@H](C(=O)NCC(N)=O)CSCC(=O)N[C@@H](Cc2ccc(O)cc2)C(=O)N(C)[C@@H](C)C(=O)N[C@@H](CC(N)=O)C(=O)N2CCC[C@H]2C(=O)N[C@@H](CNCc2ccccc2-c2ccc(Cl)cc2)C(=O)N[C@@H](CC(C)C)C(=O)N2C[C@H](O)C[C@H]2C(=O)N[C@@H](Cc2c[nH]c3ccccc23)C(=O)N[C@@H](CCNCc2ccccc2-c2ccc(Cl)cc2)C(=O)N[C@@H](Cc2cn(CC(=O)O)c3ccccc23)C(=O)N1C [Example 1001] ({CH2CO}-Y[NMeA]NP[X64]L[Hyp]W[X65][Trp(1-CH2COOH)][NMeNle][NMeNle]LCG-NH2; thioether N-14), the pIC50 was 7.85. Work on CCCC[C@H]1C(=O)N(C)[C@@H](CCCC)C(=O)N[C@@H](CC(C)C)C(=O)N[C@H](C(=O)NCC(N)=O)CSCC(=O)N[C@@H](Cc2ccc(O)cc2)C(=O)N(C)[C@@H](C)C(=O)N[C@@H](CC(N)=O)C(=O)N2CCC[C@H]2C(=O)N[C@@H](CNCc2cccc3nccnc23)C(=O)N[C@@H](CC(C)C)C(=O)N2C[C@H](O)C[C@H]2C(=O)N[C@@H](Cc2c[nH]c3ccccc23)C(=O)N[C@@H](CCNCc2cccc3nccnc23)C(=O)N[C@@H](Cc2cn(CC(=O)O)c3ccccc23)C(=O)N1C [Example 1002] ({CH2CO}-Y[NMeA]NP[X18]L[Hyp]W[X19][Trp(1-CH2COOH)][NMeNle][NMeNle]LCG-NH2; thioether N-14) yielded a pIC50 of 8.21. In the case of CCCC[C@H]1C(=O)N(C)[C@@H](CCCC)C(=O)N[C@@H](CC(C)C)C(=O)N[C@H](C(=O)NCC(N)=O)CSCC(=O)N[C@@H](Cc2ccc(O)cc2)C(=O)N(C)[C@@H](C)C(=O)N[C@@H](CC(N)=O)C(=O)N2CCC[C@H]2C(=O)N[C@@H](CNCc2cccc3nccnc23)C(=O)N[C@@H](CC(C)C)C(=O)N2C[C@H](O)C[C@H]2C(=O)N[C@@H](Cc2c[nH]c3ccccc23)C(=O)N[C@@H](CCN)C(=O)N[C@@H](Cc2cn(CC(=O)O)c3ccccc23)C(=O)N1C [Example 1004] ({CH2CO}-Y[NMeA]NP[X18]L[Hyp]W[Dab][Trp(1-CH2COOH)][NMeNle][NMeNle]LCG-NH2; thioether N-14), the pIC50 was 8.37. For CCCC[C@H]1C(=O)N(C)[C@@H](CCCC)C(=O)N[C@@H](CC(C)C)C(=O)N[C@H](C(=O)NCC(N)=O)CSCC(=O)N[C@@H](Cc2ccc(O)cc2)C(=O)N(C)[C@@H](C)C(=O)N[C@@H](CC(N)=O)C(=O)N2CCC[C@H]2C(=O)N[C@@H](CNCc2cccc3ccc4ccccc4c23)C(=O)N[C@@H](CC(C)C)C(=O)N2C[C@H](O)C[C@H]2C(=O)N[C@@H](Cc2c[nH]c3ccccc23)C(=O)N[C@@H](CCN)C(=O)N[C@@H](Cc2cn(CC(=O)O)c3ccccc23)C(=O)N1C [Example 1005] ({CH2CO}-Y[NMeA]NP[X12]L[Hyp]W[Dab][Trp(1-CH2COOH)][NMeNle][NMeNle]LCG-NH2; thioether N-14), the pIC50 was 6.92. CCCC[C@H]1C(=O)N(C)[C@@H](CCCC)C(=O)N[C@@H](CC(C)C)C(=O)N[C@H](C(=O)NCC(N)=O)CSCC(=O)N[C@@H](Cc2ccc(O)cc2)C(=O)N(C)[C@@H](C)C(=O)N[C@@H](CC(N)=O)C(=O)N2CCC[C@H]2C(=O)N[C@@H](CNCc2ccccc2O[C@@H]2O[C@H](CO)[C@@H](O)[C@H](O)[C@H]2O)C(=O)N[C@@H](CC(C)C)C(=O)N2C[C@H](O)C[C@H]2C(=O)N[C@@H](Cc2c[nH]c3ccccc23)C(=O)N[C@@H](CCNCc2ccccc2O[C@@H]2O[C@H](CO)[C@@H](O)[C@H](O)[C@H]2O)C(=O)N[C@@H](Cc2cn(CC(=O)O)c3ccccc23)C(=O)N1C [Example 1006] ({CH2CO}-Y[NMeA]NP[X47]L[Hyp]W[X48][Trp(1-CH2COOH)][NMeNle][NMeNle]LCG-NH2; thioether N-14) showed a pIC50 of 7.49. For CCCC[C@H]1C(=O)N(C)[C@@H](CCCC)C(=O)N[C@@H](CC(C)C)C(=O)N[C@H](C(=O)NCC(N)=O)CSCC(=O)N[C@@H](Cc2ccc(O)cc2)C(=O)N(C)[C@@H](C)C(=O)N[C@@H](CC(N)=O)C(=O)N2CCC[C@H]2C(=O)N[C@@H](CNCc2ccccc2O[C@@H]2O[C@H](CO)[C@@H](O)[C@H](O)[C@H]2O)C(=O)N[C@@H](CC(C)C)C(=O)N2C[C@H](O)C[C@H]2C(=O)N[C@@H](Cc2c[nH]c3ccccc23)C(=O)N[C@@H](CCN)C(=O)N[C@@H](Cc2cn(CC(=O)O)c3ccccc23)C(=O)N1C [Example 1007] ({CH2CO}-Y[NMeA]NP[X47]L[Hyp]W[Dab][Trp(1-CH2COOH)][NMeNle][NMeNle]LCG-NH2; thioether N-14), the pIC50 was 7.92.
